Biological target: T1, human FIXa (Homo sapiens, UniProt P00740)
T1 construct: with (+) and without (−) addition of 50 ng human FIXaβ; purchased ERL (Enzyme Research Laboratories)
Test: Chromogenic FVIII-like (FXa generation) assay with human FIXa added
Assay type: biochemical
In short: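 FXa generation at 37 °C with bovine FIXa/FX plus phospholipids, 25 mM CaCl2 stock, S-2222 substrate and thrombin inhibitor I-2581; 50 ng human FIXa added per reaction. Absorbance at 405 and 490 nm read from 5 min to 2 h against a reagent blank.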

T1 sequence (P00740 47-191 limits assumed): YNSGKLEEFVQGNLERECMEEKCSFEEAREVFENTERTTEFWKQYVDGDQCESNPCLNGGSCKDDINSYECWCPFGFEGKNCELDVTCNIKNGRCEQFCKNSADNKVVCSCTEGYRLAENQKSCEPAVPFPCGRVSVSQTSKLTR
T1 sequence (P00740 227-461 limits assumed): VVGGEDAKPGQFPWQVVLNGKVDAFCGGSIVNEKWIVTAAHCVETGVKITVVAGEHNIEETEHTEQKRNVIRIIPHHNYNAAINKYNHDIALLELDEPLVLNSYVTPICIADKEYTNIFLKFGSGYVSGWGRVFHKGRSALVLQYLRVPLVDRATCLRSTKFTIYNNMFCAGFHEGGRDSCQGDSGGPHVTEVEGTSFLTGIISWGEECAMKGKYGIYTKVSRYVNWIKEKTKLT

chromogenic FVIII-like activity (FXa generation) (2.9 nM human FIXa): readily measurable FXa generation
chromogenic activity (12 μM peptide, 2.3 nM human FIXa): virtually unchanged
Sequence: RRREGGGYYVNWYFDRRR [A1/3]
chromogenic FVIII-like activity (24 μM, with vs without 2.3 nM human FIXa): the reaction takes place only in the presence of human FIXa

Source: patent publication US7279161B2, “Factor IX/factor IXa activating antibodies and antibody derivatives” (Baxter Aktiengesellschaft, priority 1999, dated 2007)
